From ChEMBL document CHEMBL1201862, “PubChem BioAssay data set” (2004)
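Values below derive from 48-hour exposures of cells grown in 96-well plates, with endpoints linearly interpolated between the two concentrations bracketing the appropriate inhibition level. GI50 marks 50% less growth.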 Calls of active or inactive are those of the source. Rule as the data show it: active = GI50 up to about 1.1 µM and inactive = higher.

Legend:
Experiment in all cases: inhibition of tumour cell growth, NCI panel, 48 h
[1] = tested on: 786-0
[2] = tested on: A498
[3] = tested on: A549
[4] = tested on: ACHN
[5] = tested on: BT-549
[6] = tested on: CAKI-1
[7] = tested on: CCRF-CEM
[8] = tested on: COLO 205
[9] = tested on: DU-145
[10] = tested on: EKVX
[11] = tested on: HCC 2998
[12] = tested on: HCT-116
[13] = tested on: HCT-15
[14] = tested on: HL-60
[15] = tested on: HOP-62
[16] = tested on: HOP-92
[17] = tested on: HT-29
[18] = tested on: Hs-578T
[19] = tested on: IGROV-1
[20] = tested on: K562
[21] = tested on: KM12
[22] = tested on: LOX IMVI
[23] = tested on: M14
[24] = tested on: MCF7
[25] = tested on: MDA-MB-231
[26] = tested on: MDA-MB-435
[27] = tested on: MDA-N
[28] = tested on: MOLT-4
[29] = tested on: Malme-3M
[30] = tested on: NCI-H226
[31] = tested on: NCI-H23
[32] = tested on: NCI-H460
[33] = tested on: NCI-H522
[34] = tested on: NCI/ADR-RES
[35] = tested on: OVCAR-3
[36] = tested on: OVCAR-4
[37] = tested on: OVCAR-5
[38] = tested on: OVCAR-8
[39] = tested on: PC-3
[40] = tested on: RPMI-8226
[41] = tested on: RXF 393
[42] = tested on: SF-268
[43] = tested on: SF-295
[44] = tested on: SF-539
[45] = tested on: SK-MEL-28
[46] = tested on: SK-MEL-2
[47] = tested on: SK-MEL-5
[48] = tested on: SK-OV-3
[49] = tested on: SN12C
[50] = tested on: SNB-19
[51] = tested on: SNB-75
[52] = tested on: SR
[53] = tested on: SW-620
[54] = tested on: T47D
[55] = tested on: TK-10
[56] = tested on: U-251
[57] = tested on: UACC-257
[58] = tested on: UACC-62
[59] = tested on: UO-31

SMILES: COc1ccc(-c2c3c(cc4cc5c(cc24)OCO5)C(=O)OC3)cc1OC
- GI50 [1]: 2.12 µM (inactive)
- GI50 [2]: 20.4 µM (inactive)
- GI50 [3]: 1.44 µM (inactive)
- GI50 [4]: 1.37 µM (inactive)
- GI50 [5]: 510 nM (active)
- GI50 [6]: 571 nM (active)
- GI50 [7]: 4.06 µM (inactive)
- GI50 [8]: 383 nM (active)
- GI50 [9]: 2.7 µM (inactive)
- GI50 [10]: 1.96 µM (inactive)
- GI50 [11]: 2.99 µM (inactive)
- GI50 [12]: 466 nM (active)
- GI50 [13]: 635 nM
- GI50 [14]: 271 nM (active)
- GI50 [15]: 313 nM (active)
- GI50 [16]: 771 nM (active)
- GI50 [17]: 215 nM (active)
- GI50 [18]: 6.22 µM (inactive)
- GI50 [19]: 336 nM (active)
- GI50 [20]: 690 nM (active)
- GI50 [21]: 1.77 µM (inactive)
- GI50 [22]: 16.4 nM (active)
- GI50 [23]: 305 nM (active)
- GI50 [24]: 4.13 µM (inactive)
- GI50 [25]: 3.02 µM (inactive)
- GI50 [26]: 2.43 µM (inactive)
- GI50 [27]: 2.01 µM (inactive)
- GI50 [28]: 3.62 µM (inactive)
- GI50 [29]: 510 nM (active)
- GI50 [30]: 340 nM (active)
- GI50 [31]: 6.98 µM (inactive)
- GI50 [32]: 222 nM (active)
- GI50 [33]: 392 nM (active)
- GI50 [34]: 132 nM (active)
- GI50 [35]: 885 nM (active)
- GI50 [36]: 2.47 µM (inactive)
- GI50 [37]: 9.55 µM (inactive)
- GI50 [38]: 240 nM (active)
- GI50 [39]: 4.01 µM (inactive)
- GI50 [40]: 44.7 nM (active)
- GI50 [41]: 2.9 µM (inactive)
- GI50 [42]: 5.85 µM (inactive)
- GI50 [43]: 239 nM (active)
- GI50 [44]: 3.5 µM (inactive)
- GI50 [45]: 1.37 µM (inactive)
- GI50 [46]: 1.83 µM (inactive)
- GI50 [47]: 119 nM (active)
- GI50 [48]: 13.4 µM (inactive)
- GI50 [49]: 488 nM (active)
- GI50 [50]: 16.1 µM (inactive)
- GI50 [51]: 6.92 µM (inactive)
- GI50 [52]: 29.9 nM (active)
- GI50 [53]: 2.19 µM (inactive)
- GI50 [54]: 386 nM (active)
- GI50 [55]: 42.2 µM (inactive)
- GI50 [56]: 4.67 µM (inactive)
- GI50 [57]: 2.07 µM (inactive)
- GI50 [58]: 507 nM (active)
- GI50 [59]: 3.15 µM (inactive)
